According to ChEMBL document CHEMBL1201862, “PubChem BioAssay data set” (2004):
Active and inactive are the calls of the source.

Key:
Assay type in all cases: functional
[1] = target: Dual specificity tyrosine-phosphorylation-regulated kinase 1B (Homo sapiens, UniProt Q9Y463); assay: Navigating the Kinome. Panel member name: DYRK1B
[2] = target: Dual specificity protein kinase CLK4 (Homo sapiens, UniProt Q9HAZ1)
[3] = target: Receptor-type tyrosine-protein kinase FLT3 (Homo sapiens, UniProt P36888);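 note: FLT3 was tested as one member of a kinome-wide kinase panel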
[4] = target: cAMP-dependent protein kinase catalytic subunit alpha (Homo sapiens, UniProt P17612)
[5] = target: Glycogen synthase kinase-3 alpha (Homo sapiens, UniProt P49840);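 note: GSK3A result taken from a broad kinome-wide kinase panel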
[6] = target: Mitogen-activated protein kinase kinase kinase kinase 4 (Homo sapiens, UniProt O95819)
[7] = target: Cyclin-dependent kinase 7 (Homo sapiens, UniProt P50613);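 note: value comes from a kinome-wide kinase profiling panel in which CDK7 is one member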
Cyclin-dependent kinase 7, sequence (P50613 whole entry, the tested form may be a part): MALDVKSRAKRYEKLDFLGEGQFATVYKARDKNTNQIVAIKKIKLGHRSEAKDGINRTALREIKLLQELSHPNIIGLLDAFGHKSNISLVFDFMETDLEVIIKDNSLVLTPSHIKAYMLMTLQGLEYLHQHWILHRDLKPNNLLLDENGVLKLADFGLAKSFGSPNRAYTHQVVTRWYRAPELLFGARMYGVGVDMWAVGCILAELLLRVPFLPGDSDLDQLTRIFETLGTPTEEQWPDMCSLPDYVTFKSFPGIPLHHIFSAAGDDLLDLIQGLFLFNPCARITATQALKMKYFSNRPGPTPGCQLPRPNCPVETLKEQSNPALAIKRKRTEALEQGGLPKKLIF

LIM domain kinase 1 = LIM domain kinase 1 (Homo sapiens, UniProt P53667); assay: Navigating the Kinome. Panel member name: LIMK1
[8] = target: Rho-associated protein kinase 1 (Homo sapiens, UniProt Q13464);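 note: measured within a broad kinome-wide panel profiling many kinases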
[9] = target: Leucine-rich repeat serine/threonine-protein kinase 2 (Homo sapiens, UniProt Q5S007);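 note: value from a broad kinome-wide panel profiling study in which LRRK2 was one of the kinases tested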
[10] = target: Cyclin-dependent kinase 8 (Homo sapiens, UniProt P49336); assay: Navigating the Kinome. Panel member name: CDK8
[11] = target: Macrophage-stimulating protein receptor (Homo sapiens, UniProt Q04912); assay: Navigating the Kinome. Panel member name: MST1R
[12] = target: Vascular endothelial growth factor receptor 1 (Homo sapiens, UniProt P17948);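 note: measured within a kinome-wide profiling panel, FLT1 as the panel member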
Vascular endothelial growth factor receptor 1, sequence (P17948 whole entry): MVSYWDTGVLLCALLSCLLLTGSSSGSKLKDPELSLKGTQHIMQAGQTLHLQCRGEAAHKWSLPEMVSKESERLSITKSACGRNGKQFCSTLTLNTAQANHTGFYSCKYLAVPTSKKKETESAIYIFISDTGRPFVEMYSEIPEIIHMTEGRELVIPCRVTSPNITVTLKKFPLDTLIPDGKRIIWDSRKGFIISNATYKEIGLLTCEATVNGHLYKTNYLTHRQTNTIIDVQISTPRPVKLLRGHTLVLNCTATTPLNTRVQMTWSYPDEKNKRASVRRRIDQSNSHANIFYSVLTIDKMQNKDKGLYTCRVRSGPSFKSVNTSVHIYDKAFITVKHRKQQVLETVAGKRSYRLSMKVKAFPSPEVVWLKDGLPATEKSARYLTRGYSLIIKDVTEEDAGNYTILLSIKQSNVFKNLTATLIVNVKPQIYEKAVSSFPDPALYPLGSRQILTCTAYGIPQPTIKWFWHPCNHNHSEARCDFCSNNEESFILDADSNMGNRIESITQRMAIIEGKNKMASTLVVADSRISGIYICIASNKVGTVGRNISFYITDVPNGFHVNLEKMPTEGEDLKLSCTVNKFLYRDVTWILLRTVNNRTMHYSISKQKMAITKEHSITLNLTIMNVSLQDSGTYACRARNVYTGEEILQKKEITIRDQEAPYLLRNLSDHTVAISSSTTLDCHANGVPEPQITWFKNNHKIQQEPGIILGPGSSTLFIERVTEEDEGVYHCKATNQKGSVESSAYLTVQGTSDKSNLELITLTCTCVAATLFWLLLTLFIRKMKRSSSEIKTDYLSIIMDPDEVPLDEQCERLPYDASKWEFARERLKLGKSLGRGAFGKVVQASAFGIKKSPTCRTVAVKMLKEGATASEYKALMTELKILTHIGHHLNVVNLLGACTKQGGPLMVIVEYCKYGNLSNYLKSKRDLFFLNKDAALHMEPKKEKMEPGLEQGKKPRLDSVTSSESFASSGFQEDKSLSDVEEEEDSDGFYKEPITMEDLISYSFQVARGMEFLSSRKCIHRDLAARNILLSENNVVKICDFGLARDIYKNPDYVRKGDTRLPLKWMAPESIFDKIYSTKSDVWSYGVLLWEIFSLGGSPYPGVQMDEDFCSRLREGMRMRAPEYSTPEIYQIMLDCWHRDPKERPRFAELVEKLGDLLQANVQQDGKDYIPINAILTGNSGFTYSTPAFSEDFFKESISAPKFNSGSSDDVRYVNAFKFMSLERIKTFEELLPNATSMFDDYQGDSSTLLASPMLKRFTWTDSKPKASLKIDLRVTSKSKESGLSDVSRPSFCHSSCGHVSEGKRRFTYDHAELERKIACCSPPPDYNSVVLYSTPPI

[13] = target: Serine/threonine-protein kinase TAO1 (Homo sapiens, UniProt Q7L7X3)
[14] = target: BDNF/NT-3 growth factors receptor (Homo sapiens, UniProt Q16620);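 note: NTRK2 measured as one member of a broad kinome-wide kinase profiling panel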
[15] = target: Leukocyte tyrosine kinase receptor (Homo sapiens, UniProt P29376); assay: Navigating the Kinome. Panel member name: LTK
[16] = target: Calcium/calmodulin-dependent protein kinase type II subunit alpha (Homo sapiens, UniProt Q9UQM7); assay: Navigating the Kinome. Panel member name: CAMK2A
Calcium/calmodulin-dependent protein kinase type II subunit alpha, sequence (Q9UQM7 whole entry): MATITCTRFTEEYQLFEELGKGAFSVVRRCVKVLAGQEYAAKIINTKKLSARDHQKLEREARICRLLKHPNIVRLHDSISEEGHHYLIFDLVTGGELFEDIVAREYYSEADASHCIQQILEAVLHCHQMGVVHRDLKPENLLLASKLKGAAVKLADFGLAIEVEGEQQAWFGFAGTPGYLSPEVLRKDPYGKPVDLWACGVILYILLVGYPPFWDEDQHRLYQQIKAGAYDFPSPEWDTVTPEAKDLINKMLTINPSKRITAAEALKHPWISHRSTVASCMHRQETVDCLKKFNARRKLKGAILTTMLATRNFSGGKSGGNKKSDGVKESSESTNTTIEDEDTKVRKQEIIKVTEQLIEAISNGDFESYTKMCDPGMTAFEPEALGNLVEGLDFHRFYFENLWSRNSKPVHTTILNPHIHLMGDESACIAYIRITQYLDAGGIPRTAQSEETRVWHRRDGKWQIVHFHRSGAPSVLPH

[17] = target: Tyrosine-protein kinase Lck (Homo sapiens, UniProt P06239);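 note: lck was assayed as one member of a kinase panel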
[18] = target: Serine/threonine-protein kinase Nek2 (Homo sapiens, UniProt P51955)
[19] = target: Serine/threonine-protein kinase PAK 4 (Homo sapiens, UniProt O96013);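 note: value obtained within a kinome profiling panel in which PAK4 was one of the panel members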
[20] = target: Glycogen synthase kinase-3 beta (Homo sapiens, UniProt P49841);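 note: value comes from a broad kinome profiling panel, with GSK3B as the panel member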
[21] = target: Tyrosine-protein kinase Fyn (Homo sapiens, UniProt P06241)
[22] = target: Serine/threonine-protein kinase pim-1 (Homo sapiens, UniProt P11309)
[23] = target: Platelet-derived growth factor receptor beta (Homo sapiens, UniProt P09619);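 note: value comes from a kinome panel, with PDGFRB tested as one panel member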
Activated CDC42 kinase 1 = Activated CDC42 kinase 1 (Homo sapiens, UniProt Q07912); assay: Navigating the Kinome. Panel member name: ACK1
[24] = target: Hepatocyte growth factor receptor (Homo sapiens, UniProt P08581);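 note: kinase panel profiling across the kinome, with MET as the panel member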
[25] = target: Proto-oncogene tyrosine-protein kinase receptor Ret (Homo sapiens, UniProt P07949);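 note: measured within a kinome-wide profiling panel, RET as the panel member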
[26] = target: High affinity nerve growth factor receptor (Homo sapiens, UniProt P04629);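 note: NTRK1 tested as one member of a kinome-wide profiling panel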
[27] = target: Tyrosine-protein kinase JAK3 (Homo sapiens, UniProt P52333)
[28] = target: Dual specificity mitogen-activated protein kinase kinase 2 (Homo sapiens, UniProt P36507); assay: Navigating the Kinome. Panel member name: MAP2K2
[29] = target: Dual specificity mitogen-activated protein kinase kinase 1 (Homo sapiens, UniProt Q02750); assay: Navigating the Kinome. Panel member name: MAP2K1
Dual specificity mitogen-activated protein kinase kinase 1, sequence (Q02750 whole entry): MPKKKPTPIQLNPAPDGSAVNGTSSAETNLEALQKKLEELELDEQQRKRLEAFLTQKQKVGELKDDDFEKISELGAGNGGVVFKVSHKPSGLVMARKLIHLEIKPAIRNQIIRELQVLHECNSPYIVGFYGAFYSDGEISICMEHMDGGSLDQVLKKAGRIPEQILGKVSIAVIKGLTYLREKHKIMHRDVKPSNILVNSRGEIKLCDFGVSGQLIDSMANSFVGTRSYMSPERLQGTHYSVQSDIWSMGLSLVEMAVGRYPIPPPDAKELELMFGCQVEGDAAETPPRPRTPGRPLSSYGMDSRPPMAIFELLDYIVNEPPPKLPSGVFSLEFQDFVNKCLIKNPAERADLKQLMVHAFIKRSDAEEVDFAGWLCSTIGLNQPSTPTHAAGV

[30] = target: Inhibitor of nuclear factor kappa-B kinase subunit epsilon (Homo sapiens, UniProt Q14164); assay: Navigating the Kinome. Panel member name: IKBKE
[31] = target: 5'-AMP-activated protein kinase catalytic subunit alpha-1 (Homo sapiens, UniProt Q13131)
[32] = target: Tyrosine-protein kinase BTK (Homo sapiens, UniProt Q06187)
[33] = target: Tyrosine-protein kinase receptor TYRO3 (Homo sapiens, UniProt Q06418);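 note: TYRO3 value obtained as one member of a kinome-wide profiling panel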
[34] = target: Dual specificity tyrosine-phosphorylation-regulated kinase 1A (Homo sapiens, UniProt Q13627);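 note: measured against DYRK1A as one member of a broad kinome profiling panel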
[35] = target: Serine/threonine-protein kinase TBK1 (Homo sapiens, UniProt Q9UHD2); assay: Navigating the Kinome. Panel member name: TBK1
[36] = target: Mitogen-activated protein kinase 14 (Homo sapiens, UniProt Q16539);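 note: part of a kinome-wide panel, MAPK14 entry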
Mitogen-activated protein kinase 14, sequence (Q16539 whole entry): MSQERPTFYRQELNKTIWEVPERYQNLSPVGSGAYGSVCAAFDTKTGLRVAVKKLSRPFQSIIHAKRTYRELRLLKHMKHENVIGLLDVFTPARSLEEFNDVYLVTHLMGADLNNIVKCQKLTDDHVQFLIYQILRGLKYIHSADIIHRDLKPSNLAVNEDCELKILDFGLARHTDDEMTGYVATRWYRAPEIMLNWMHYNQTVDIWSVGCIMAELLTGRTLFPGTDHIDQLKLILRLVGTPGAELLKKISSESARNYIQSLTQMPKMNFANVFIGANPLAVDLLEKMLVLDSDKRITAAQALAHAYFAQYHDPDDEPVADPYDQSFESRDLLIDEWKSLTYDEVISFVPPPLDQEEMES

[37] = target: Mitogen-activated protein kinase 8 (Homo sapiens, UniProt P45983);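 note: value comes from one member of a kinome-wide kinase profiling panel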
[38] = target: Serine/threonine-protein kinase D3 (Homo sapiens, UniProt O94806);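 note: determined within a kinase panel screen, with PRKCN as the panel member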
[39] = target: Cyclin-dependent kinase 9 (Homo sapiens, UniProt P50750);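 note: value from the CDK9 entry of a kinome-spanning kinase panel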
[40] = target: Dual specificity protein kinase CLK2 (Homo sapiens, UniProt P49760)
Aurora kinase B = Aurora kinase B (Homo sapiens, UniProt Q96GD4)
Aurora kinase B, sequence (Q96GD4 whole entry): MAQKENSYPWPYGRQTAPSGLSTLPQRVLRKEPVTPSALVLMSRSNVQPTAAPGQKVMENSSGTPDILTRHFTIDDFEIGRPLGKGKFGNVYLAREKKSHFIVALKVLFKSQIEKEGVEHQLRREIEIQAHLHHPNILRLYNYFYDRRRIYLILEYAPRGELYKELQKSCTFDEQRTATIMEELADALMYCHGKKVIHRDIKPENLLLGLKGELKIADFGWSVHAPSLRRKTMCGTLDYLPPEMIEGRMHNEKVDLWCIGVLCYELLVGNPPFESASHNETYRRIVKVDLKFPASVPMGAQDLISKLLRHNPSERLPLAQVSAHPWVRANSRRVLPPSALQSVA

[41] = target: Death-associated protein kinase 3 (Homo sapiens, UniProt O43293);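 note: measured as one member of a kinome-wide profiling panel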
[42] = target: Mitogen-activated protein kinase 9 (Homo sapiens, UniProt P45984);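 note: value from a kinome panel profiling assay, MAPK9 panel entry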
[43] = target: Cyclin-dependent kinase 5 (Homo sapiens, UniProt Q00535);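 note: CDK5 measured as one member of a kinase profiling panel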
Cyclin-dependent kinase 5, sequence (Q00535 whole entry): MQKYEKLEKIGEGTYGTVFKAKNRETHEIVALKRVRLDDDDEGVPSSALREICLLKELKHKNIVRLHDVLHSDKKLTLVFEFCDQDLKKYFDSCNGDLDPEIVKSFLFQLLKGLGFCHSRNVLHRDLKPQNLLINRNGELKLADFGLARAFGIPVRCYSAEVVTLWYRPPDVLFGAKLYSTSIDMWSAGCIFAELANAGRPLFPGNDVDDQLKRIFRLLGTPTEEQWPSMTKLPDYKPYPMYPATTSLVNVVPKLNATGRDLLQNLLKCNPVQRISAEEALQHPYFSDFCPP

[44] = target: Platelet-derived growth factor receptor alpha (Homo sapiens, UniProt P16234); assay: Navigating the Kinome. Panel member name: PDGFRA
Focal adhesion kinase 1 = Focal adhesion kinase 1 (Homo sapiens, UniProt Q05397);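 note: measured as one member of a kinome panel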
Focal adhesion kinase 1, sequence (Q05397 whole entry): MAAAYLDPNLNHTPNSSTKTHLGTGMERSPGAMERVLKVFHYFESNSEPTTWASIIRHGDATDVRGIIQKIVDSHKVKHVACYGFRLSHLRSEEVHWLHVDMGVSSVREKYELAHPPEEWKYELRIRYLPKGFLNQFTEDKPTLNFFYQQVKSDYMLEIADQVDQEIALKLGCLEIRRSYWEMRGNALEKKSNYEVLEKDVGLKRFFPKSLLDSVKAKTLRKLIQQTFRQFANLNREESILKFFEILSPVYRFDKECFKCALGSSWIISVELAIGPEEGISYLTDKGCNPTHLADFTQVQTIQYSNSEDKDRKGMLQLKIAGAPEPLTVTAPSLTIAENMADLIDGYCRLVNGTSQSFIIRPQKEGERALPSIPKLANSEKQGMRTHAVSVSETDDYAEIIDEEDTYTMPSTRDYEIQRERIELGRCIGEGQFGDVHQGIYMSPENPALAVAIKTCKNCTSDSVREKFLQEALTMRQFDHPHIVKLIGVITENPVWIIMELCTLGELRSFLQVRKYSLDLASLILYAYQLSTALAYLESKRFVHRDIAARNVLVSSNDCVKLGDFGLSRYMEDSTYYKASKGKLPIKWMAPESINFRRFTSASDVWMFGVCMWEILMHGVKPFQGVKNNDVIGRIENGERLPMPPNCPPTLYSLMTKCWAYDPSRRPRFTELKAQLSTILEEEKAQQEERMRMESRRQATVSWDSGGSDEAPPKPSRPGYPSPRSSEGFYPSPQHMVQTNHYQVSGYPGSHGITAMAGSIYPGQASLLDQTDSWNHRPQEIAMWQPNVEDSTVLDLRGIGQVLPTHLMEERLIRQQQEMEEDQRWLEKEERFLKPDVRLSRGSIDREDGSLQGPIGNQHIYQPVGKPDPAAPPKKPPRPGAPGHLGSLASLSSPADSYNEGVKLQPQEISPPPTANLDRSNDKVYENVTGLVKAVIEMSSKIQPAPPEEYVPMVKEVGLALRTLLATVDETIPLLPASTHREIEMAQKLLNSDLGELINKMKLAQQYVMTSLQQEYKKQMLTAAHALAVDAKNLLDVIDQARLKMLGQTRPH

[45] = target: Ribosomal protein S6 kinase alpha-3 (Homo sapiens, UniProt P51812);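 note: measured within a kinome-wide profiling panel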
[46] = target: cAMP-dependent protein kinase catalytic subunit PRKX (Homo sapiens, UniProt P51817)
Aurora kinase A = Aurora kinase A (Homo sapiens, UniProt O14965);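 note: value from the Navigating the Kinome kinase panel profiling, panel entry STK6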
Aurora kinase A, sequence (O14965 whole entry): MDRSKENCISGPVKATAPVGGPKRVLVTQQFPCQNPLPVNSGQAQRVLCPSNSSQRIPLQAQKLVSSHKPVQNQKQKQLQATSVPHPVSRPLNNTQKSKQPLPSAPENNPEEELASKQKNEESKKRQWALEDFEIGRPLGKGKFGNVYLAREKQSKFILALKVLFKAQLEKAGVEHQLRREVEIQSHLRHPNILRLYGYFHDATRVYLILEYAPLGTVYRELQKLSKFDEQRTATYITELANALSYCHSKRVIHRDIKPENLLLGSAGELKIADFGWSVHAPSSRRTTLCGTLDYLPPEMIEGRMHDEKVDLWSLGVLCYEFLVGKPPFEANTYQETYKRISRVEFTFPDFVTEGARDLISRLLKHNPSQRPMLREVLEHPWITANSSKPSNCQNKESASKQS

[47] = target: T1, Neuropeptides B/W receptor type 1 (Homo sapiens, UniProt P48145); assay: GPR7 antagonist potency, late-stage follow-up, cell-based, fluorescence, dose response, set 5 (AID 588566)
T1 sequence (P48145 whole entry): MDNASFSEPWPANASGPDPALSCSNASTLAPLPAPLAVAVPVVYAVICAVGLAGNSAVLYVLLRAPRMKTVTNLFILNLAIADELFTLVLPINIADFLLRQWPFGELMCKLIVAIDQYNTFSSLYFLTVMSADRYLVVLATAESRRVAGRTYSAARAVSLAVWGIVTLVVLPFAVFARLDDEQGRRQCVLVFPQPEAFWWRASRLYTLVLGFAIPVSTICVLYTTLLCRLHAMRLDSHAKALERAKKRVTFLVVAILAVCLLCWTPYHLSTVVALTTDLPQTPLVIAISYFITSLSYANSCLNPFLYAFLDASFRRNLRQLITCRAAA

[48] = target: Melanin-concentrating hormone receptor 1 (Homo sapiens, UniProt Q99705); assay: Late-stage fluorescence-based counterscreen for antagonists of the G-protein coupled receptor 7 (GPR7): cell-based dose response assay to identify antagonists of the melanin-concentrating hormone receptor 1 (MCHR1) Set 5.

## O=C(Nc1cnccn1)Nc1cccc2c(O)cccc12
[1]
  Ki: 631 nM (active)
[2]
  Ki: 126 nM (active)
[3]
  Ki: > 3160 nM (inactive)
[4]
  Ki: > 1260 nM (inactive)
[5]
  Ki: 1580 nM (active)
[6]
  Ki: 5010 nM (active)
[7]
  Ki: 3980 nM (active)
LIM domain kinase 1
  Ki: 126 nM (active)
[8]
  Ki: > 3980 nM (inactive)
[9]
  Ki: 1580 nM (active)
[10]
  Ki: 316 nM (active)
[11]
  Ki: 1580 nM (active)
[12]
  Ki: > 3980 nM (inactive)
[13]
  Ki: > 6310 nM (inactive)
[14]
  Ki: > 3980 nM (inactive)
[15]
  Ki: 2000 nM (active)
[16]
  Ki: > 3980 nM (inactive)
[17]
  Ki: > 6310 nM (inactive)
[18]
  Ki: > 3160 nM (inactive)
[19]
  Ki: > 5010 nM (inactive)
[20]
  Ki: 1000 nM (active)
[21]
  Ki: > 6310 nM (inactive)
[22]
  Ki: 1000 nM (active)
[23]
  Ki: > 2000 nM (inactive)
Activated CDC42 kinase 1
  Ki: > 3980 nM (inactive)
[24]
  Ki: 1000 nM (active)
[25]
  Ki: 1580 nM (active)
[26]
  Ki: 1580 nM (active)
[27]
  Ki: > 5010 nM (inactive)
[28]
  Ki: > 3980 nM (inactive)
[29]
  Ki: > 3160 nM (inactive)
[30]
  Ki: > 3160 nM (inactive)
[31]
  Ki: 2000 nM (active)
[32]
  Ki: > 6310 nM (inactive)
[33]
  Ki: 2000 nM (active)
[34]
  Ki: 1260 nM (active)
[35]
  Ki: > 3160 nM (inactive)
[36]
  Ki: > 3980 nM (inactive)
[37]
  Ki: 3980 nM (active)
[38]
  Ki: 794 nM (active)
[39]
  Ki: 200 nM (active)
[40]
  Ki: 2000 nM (active)
Aurora kinase B
  Ki: > 3980 nM (inactive)
[41]
  Ki: 316 nM (active)
[42]
  Ki: > 3980 nM (inactive)
[43]
  Ki: 6.31 nM (active)
[44]
  Ki: 2000 nM (active)
Focal adhesion kinase 1
  Ki: > 6310 nM (inactive)
[45]
  Ki: > 3980 nM (inactive)
[46]
  Ki: > 3160 nM (inactive)
Aurora kinase A
  Ki: > 1580 nM (inactive)

## COc1ccc(C(C#N)c2c(Cl)cnn(Cc3cccc4ccccc34)c2=O)cc1 (stereo not drawn)
[47]
  IC50: 360 nM (active)
[48]
  IC50: 1130 nM (active)
